Results from US12577537B2, “Method for culturing primary cancer cells through simulated microgravity-induced reprogramming and applications thereof” (SHANDONG UNIVERSITY, priority 2024, dated 2026).

Assays:
in vitro = conditions: human
Source text: (§1) Wherein, FIGS. 12D to 12I show the dose-response relationships of breast cancer cells (D, F, H) and normal breast tissue cells (E, G, I) from three patients (38, 7, and 71) to epirubicin; FIGS. 12J to 12O show the dose-response relationships of breast cancer cells (J, L, N) and normal breast tissue cells (K, M, O) from the same three patients (38, 7, and 71) to cyclophosphamide.
(§2) The inventors conducted drug-related experiments using the cancer cell models prepared by the method of the present application. FIG. 12A lists 8 types of common drugs used in clinical treatment of breast cancer, including epirubicin, cyclophosphamide, docetaxel, etc. This example selected two of them (FIG. 12B: epirubicin, FIG. 12C: cyclophosphamide) to conduct drug sensitivity tests on breast cancer cells from different patients cultivated in Example 5.

breast cancer cells = assay: Drug sensitivity test on SMGIR-cultured breast cancer cells from patients; format: cell-based; conditions: Homo sapiens
Source text: as §1, §2

[1] = test system: normal breast tissue cells; assay: Drug sensitivity test on SMGIR-cultured normal breast tissue (cancer-adjacent) cells from patients; format: cell-based; conditions: Homo sapiens
Source text: as §1, §2

Row | IC50 (breast cancer cells; 12 h, breast cancer cells from patient 71, SMGIR-cultured (FIG. 12H)) [nM] | IC50 (breast cancer cells; breast cancer cells from patient 7, SMGIR-cultured (FIG. 12F)) [nM] | IC50 (breast cancer cells; breast cancer cells from patient 38, SMGIR-cultured (FIG. 12D)) [nM] | Compound | viability at 4000 μM (in vitro) [%] | IC50 ([1]; normal breast tissue cells from patient 7, SMGIR-cultured (FIG. 12G)) [nM] | IC50 ([1]; normal breast tissue cells from patient 38, SMGIR-cultured (FIG. 12E)) [nM] | IC50 ([1]; normal breast tissue cells from patient 71, SMGIR-cultured (FIG. 12I)) [nM]
1 |  |  |  | O=P1(N(CCCl)CCCl)NCCCO1 (stereo not shown) [cyclophosphamide] | 70 to 80 |  |  | 
2 | 454 | 583 | 369 | COc1cccc2c1C(=O)c1c(O)c3c(c(O)c1C2=O)C[C@@](O)(C(=O)CO)C[C@@H]3O[C@H]1C[C@H](N)[C@@H](O)[C@H](C)O1 [epirubicin] |  | 651 | 357 | 766
